{"source": "patent US9975860B2", "about": "“Anti-angiogenic compounds” (UNIVERSITY COLLEGE DUBLIN—NATIONAL UNIVERSITY OF IRELAND, …, priority 2014, dated 2018)", "key": {"[1]": {"tested_on": "primary hyaloid vessels in zebrafish", "experiment": "Quantification of primary hyaloid vasculature branch number in Tg(fli1:EGFP) zebrafish", "assay_type": "in vivo", "method": "All experiments were carried out under ethical approval granted by the UCD animal research ethics committee. Tg(fli1:EGFP) zebrafish were maintained according to standard procedures on a 14 hr light/10 hr dark cycle at 28° C. Embryos were obtained by natural spawning and developmental stages established by time and morphological criteria. At 48 hours post fertilisation (hpf), 5 embryos per well were placed in 400 μl of Embryo Medium/0.1% DMSO and incubated with compound (typically, 10 μM) at 28° C. on a 14 h light/10 h dark cycle. At 5 days post fertilisation (dpf), larvae were euthanised, and fixed in 4% PFA at 4° C. overnight before analysis.\nPrior to analysis of the intraocular vasculature, the control and treated larvae were observed under an Olympus SZX16 stereo zoom microscope and screened for general malformations. Overall patterning of the vasculature (fin, gut and intersegmental vessels) was examined for abnormalities. Right lenses were dissected from the larvae and transferred to depression slides for observation under epi-fluorescence in the Olympus SZX16. Patterning of the hyaloid vessels on the treated larval lenses was compared to 0.1% DMSO controls and the archetypal pattern previously described (Alvarez et al., 2007; Alvarez et al., 2009). The number of primary vessels radiating from the back of the lens (3-4 main branches at 5 dpf in controls and previously described), was counted and the average number was graphed for each drug.\n(§1) All experimental protocols were carried out as per example 1 and 2. Briefly, zebrafish larvae were treated with 10 μM of AT-051/41206012 (chemical name 2-[2-(2-methoxyphenyl)ethenyl]pyrazine) purchased from Specs (The Netherlands). At 6 or 48 hours post fertilisation (hpf), 5 embryos per well were placed in 400 μl of Embryo Medium/0.1% DMSO and incubated with 10 μM AT-051/41206012 at 28° C. on a 14 h light/10 h dark cycle. Larvae were treated from 6-48 hpf (intersegmental vessel study) or from 48 to 120 hpf (primary hyaloid vessel study). At the end of the study, larvae were euthanized and fixed in 4% PFA at 4° C. overnight before analysis.\n(§2) The number of intersegmental vessels was counted and the average number was graphed for each drug. Right lenses were dissected from the larvae and transferred to depression slides for observation and the number of primary hyaloid vessels radiating from the back of the lens (3-4 main branches at 5 dpf in controls and previously described), was counted and the average number was graphed for each drug."}, "[2]": {"tested_on": "intersegmental vasculature in zebrafish", "experiment": "Quantification of intersegmental vessel number in zebrafish", "assay_type": "in vivo", "settings": "10 μM; zebrafish embryos treated 6 hpf to 48 hpf", "method": "At 6 hours post fertilisation, 5 embryos per well were placed in 400 μL of embryo medium/0.1% DMSO and incubated with 10 μM compound at 28° C. on a 14 h light/10 h dark cycle. At 48 hpf larvae were manually dechorionated, euthanised, and fixed in 4% PFA at 4° C. overnight before analysis. The larvae were then washed with PBS and transferred to depression slides for observation under epi-fluorescence in an Olympus SZX16 fluorescent microscope. The number of intersegmental vessels was counted and the average number was graphed for each drug.\nas §1, §2"}, "[3]": {"tested_on": "oxygen induced mouse model of retinopathy", "experiment": "Mouse oxygen-induced retinopathy model of neovascularisation", "assay_type": "in vivo", "settings": "5 and 20 μM; intravitreal injection on P12, retinas analysed P17; mouse OIR; hydrochloride", "description": "The mouse oxygen-induced retinopathy model was used to test the anti-angiogenic activity of compounds 4, 12 and 18. Mouse pups (together with their dams) were placed in 75% oxygen from postnatal day (P) 7 to P12, causing a regression of their retinal blood vessels. On P12, pups were placed back in normoxia (21%) causing a regrowth of retinal blood vessels. Pups received an intravitreal injection on P12, of compound 4, 12, 18 or vehicle control—Hank's Balanced Salt Solution, coinciding with their return to normoxia. Pups were culled on P17 and enucleated. Eyes were fixed in 4% paraformaldehyde, washed and dissected to form retinal flatmounts. Flatmounts were stained with isolectin to visualise blood vessels and imaged. The central avascular area (lacking a network of blood vessels) was quantified using FIJI image analysis software."}, "mouse aortic ring": {"tested_on": "mouse aortic ring", "experiment": "Ex vivo mouse aortic ring assay (sprout formation)", "settings": "10 μM; C57/BL6 mouse aortic rings in matrigel; vs 0.1% DMSO; hydrochloride", "method": "Aortae from sex matched C57/BL6 littermates were cleansed of adipose tissue, cut into 2 mm rings and immersed in matrigel. Aortic rings (6 per experiment) were treated with 0.1% DMSO (vehicle control/VC) or with 10 μM of Compound 4, Compound 12, Compound 15 or Compound 20. Sprouts from the perimeter of the aortic ring were counted and quantified as percentage of vehicle control (VC)."}}, "note": "Entries after “also recorded” stand apart in the source; their conditions may differ."}
{"compound": "C/C(=C\\c1ccccc1O)c1cnccn1.Cl", "note": "[Compound 12, (E)-2-[2-(Pyrazin-2-yl)prop-1-enyl]phenol hydrochloride]", "values": [{"measurement": "inhibition of developmental angiogenesis of the hyaloid vasculature (number of primary hyaloid vessels)", "setting": "[1]; 10 μM, zebrafish larvae treated 48 hpf to 5 dpf, vs 0.1% DMSO control", "result": "inhibit developmental angiogenesis of the zebrafish hyaloid vasculature in a statistically significant manner"}, {"measurement": "inhibition of developmental angiogenesis of the hyaloid vasculature (number of primary hyaloid vessels)", "setting": "[1]; concentrations below 10 μM (range 1, 2.5, 5, 7.5 and 10 μM tested), zebrafish larvae 48 hpf to 5 dpf", "result": "inhibit developmental angiogenesis of the zebrafish hyaloid vasculature in a statistically significant manner"}, {"measurement": "inhibition of developmental angiogenesis of intersegmental vessels (number of intersegmental vessels)", "setting": "[2]", "result": "inhibit developmental angiogenesis of zebrafish intersegmental vessels in a statistically significant manner"}, {"measurement": "retinal neovascularisation / revascularisation (central avascular area)", "setting": "[3]", "result": "significantly reduces retinal neovascularisation; also recorded: inhibits retinal revascularisation in a statistically significant manner"}, {"measurement": "angiogenesis (sprout formation) in aortic rings", "setting": "mouse aortic ring", "result": "block angiogenesis (sprout formation); also recorded: inhibit the formation of sprouts in a statistically significant manner"}]}
